According to patent US9938273B2 (Plexxikon Inc., priority 2015, dated 2018):

molecular target: T1, FLT3-D835Y (Homo sapiens, UniProt P36888, D835Y); assay: AlphaScreen kinase assay with recombinant enzyme, FLT3-D835Y; type: biochemical; details: 8pt, GMean
T1 construct: purchased Invitrogen PV3967
T1 sequence (P36888 27-993 D835Y): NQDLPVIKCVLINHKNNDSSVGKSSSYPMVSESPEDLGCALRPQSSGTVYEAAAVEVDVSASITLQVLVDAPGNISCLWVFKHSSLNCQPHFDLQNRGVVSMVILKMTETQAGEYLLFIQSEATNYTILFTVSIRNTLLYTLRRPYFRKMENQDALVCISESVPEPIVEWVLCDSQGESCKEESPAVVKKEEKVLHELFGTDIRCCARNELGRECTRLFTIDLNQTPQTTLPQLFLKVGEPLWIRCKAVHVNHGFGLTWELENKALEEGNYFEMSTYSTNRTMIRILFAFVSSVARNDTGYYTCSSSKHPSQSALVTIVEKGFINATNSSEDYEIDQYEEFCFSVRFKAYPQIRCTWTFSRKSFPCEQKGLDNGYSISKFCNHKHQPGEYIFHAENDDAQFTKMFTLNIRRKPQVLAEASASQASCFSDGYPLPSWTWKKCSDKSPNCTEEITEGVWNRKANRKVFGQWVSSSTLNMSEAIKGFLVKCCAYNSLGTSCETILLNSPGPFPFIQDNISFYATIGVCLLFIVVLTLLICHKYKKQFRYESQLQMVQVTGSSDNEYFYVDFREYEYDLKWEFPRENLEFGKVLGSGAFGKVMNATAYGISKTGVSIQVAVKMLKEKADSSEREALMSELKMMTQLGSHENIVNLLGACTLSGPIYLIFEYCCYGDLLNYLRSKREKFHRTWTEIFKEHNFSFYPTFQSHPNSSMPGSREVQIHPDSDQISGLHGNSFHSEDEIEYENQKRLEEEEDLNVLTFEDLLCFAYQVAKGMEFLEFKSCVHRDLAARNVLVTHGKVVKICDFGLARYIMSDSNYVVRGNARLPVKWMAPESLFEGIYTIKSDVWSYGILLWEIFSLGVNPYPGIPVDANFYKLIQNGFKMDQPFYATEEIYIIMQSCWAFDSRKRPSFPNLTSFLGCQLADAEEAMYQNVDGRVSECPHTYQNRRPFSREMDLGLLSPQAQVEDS
In short: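 Read-out: AlphaScreen proximity signal at 580 nm (680 nm excitation), lost as peptide tyrosine phosphorylation falls. Substrate Biotin-GG(EEEEY)10EE at 30 nM; IC50 runs at 10 μM (FLT3 mutants) or 100 μM (c-KIT) final. Donor beads 20 min, then acceptor beads 60 min, room temperature.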

`Cc1ccc(-c2cnc3[nH]c(-c4ccccc4)cc3c2)nc1C(=O)N1CCC(N)CC1` [Compound P-0033, (4-amino-1-piperidyl)-[3-methyl-6-(2-phenyl-1H-pyrrolo[2,3-b]pyridin-5-yl)-2-pyridyl]methanone] and `Cc1ccc(-c2cnc3[nH]c(-c4ccccc4)cc3c2)cc1C(=O)N1CCC(N)CC1` [Compound P-0035, (4-amino-1-piperidyl)-[2-methyl-5-(2-phenyl-1H-pyrrolo[2,3-b]pyridin-5-yl)phenyl]methanone] fall in the same range of IC50: 0.0001 to 10 µM for the first, 0.0001 to 10 µM for the second.

`c1ccc(-c2cc3cc(-c4ccc5[nH]nc(NC6CCNC6)c5c4)cnc3[nH]2)cc1` (stereo not drawn) [Compound P-0059, 5-(2-phenyl-1H-pyrrolo[2,3-b]pyridin-5-yl)-N-pyrrolidin-3-yl-1H-indazol-3-amine] and `c1ccc(-c2cc3cc(-c4ccc5[nH]nc(NC6CNC6)c5c4)cnc3[nH]2)cc1` [Compound P-0053, N-(azetidin-3-yl)-5-(2-phenyl-1H-pyrrolo[2,3-b]pyridin-5-yl)-1H-indazol-3-amine] fall in the same range of IC50: 0.0001 to 10 µM for the first, 0.0001 to 10 µM for the second.

`CNC1CCN(C(=O)c2n[nH]c3ccc(-c4cnc5[nH]c(-c6ccccc6)cc5c4)cc23)CC1` [Compound P-0044, [4-(methylamino)-1-piperidyl]-[5-(2-phenyl-1H-pyrrolo[2,3-b]pyridin-5-yl)-1H-indazol-3-yl]methanone] and `NC1CN(C(=O)c2n[nH]c3ccc(-c4cnc5[nH]c(-c6ccccc6)cc5c4)cc23)C1` [Compound P-0029, (3-aminoazetidin-1-yl)-[5-(2-phenyl-1H-pyrrolo[2,3-b]pyridin-5-yl)-1H-indazol-3-yl]methanone] fall in the same range of IC50: 0.0001 to 10 µM for the first, 0.0001 to 10 µM for the second.

`N[C@H]1CCN(C(=O)c2cccc(-c3cnc4[nH]c(-c5ccccc5)cc4c3)c2)C1` [Compound P-0036, [(3S)-3-aminopyrrolidin-1-yl]-[3-(2-phenyl-1H-pyrrolo[2,3-b]pyridin-5-yl)phenyl]methanone] and `N[C@H]1CCN(C(=O)c2cc(-c3cnc4[nH]c(-c5ccccc5)cc4c3)ccn2)C1` [Compound P-0046, [(3S)-3-aminopyrrolidin-1-yl]-[4-(2-phenyl-1H-pyrrolo[2,3-b]pyridin-5-yl)-2-pyridyl]methanone] fall in the same range of IC50: 0.0001 to 10 µM for the first, 0.0001 to 10 µM for the second.

`NC1CCN(c2cccc3ccc(-c4cnc5[nH]c(-c6ccccc6)cc5c4)nc23)CC1` [Compound P-0034, 1-[2-(2-phenyl-1H-pyrrolo[2,3-b]pyridin-5-yl)-8-quinolyl]piperidin-4-amine] and `NC1CCCN(C(=O)c2cccc(-c3cnc4[nH]c(-c5ccccc5)cc4c3)n2)C1` (stereo not drawn) [Compound P-0067, (3-amino-1-piperidyl)-[6-(2-phenyl-1H-pyrrolo[2,3-b]pyridin-5-yl)-2-pyridyl]methanone] fall in the same range of IC50: 0.0001 to 10 µM for the first, 0.0001 to 10 µM for the second.

`NC1CCN(C(=O)c2n[nH]c3ccc(-c4cnc5[nH]c(C6=CCN(C(=O)C7CC7)C6)cc5c4)cc23)CC1` [Compound P-0074, (4-amino-1-piperidyl)-[5-[2-[1-(cyclopropanecarbonyl)-2,5-dihydropyrrol-3-yl]-1H-pyrrolo[2,3-b]pyridin-5-yl]-1H-indazol-3-yl]methanone] and `NC1CCN(C(=O)c2c[nH]c3ccc(-c4cnc5[nH]c(-c6ccccc6)cc5c4)cc23)CC1` [Compound P-0042, (4-amino-1-piperidyl)-[5-(2-phenyl-1H-pyrrolo[2,3-b]pyridin-5-yl)-1H-indol-3-yl]methanone] fall in the same range of IC50: 0.0001 to 10 µM for the first, 0.0001 to 10 µM for the second.

`CNC(=O)C1CCN(C(=O)c2cccc(-c3cnc4[nH]c(-c5ccccc5)cc4c3)n2)CC1` [Compound P-0030, N-methyl-1-[6-(2-phenyl-1H-pyrrolo[2,3-b]pyridin-5-yl)pyridine-2-carbonyl]piperidine-4-carboxamide] and `CNC1CCN(C(=O)c2cccc(-c3cnc4[nH]c(-c5ccccc5)cc4c3)n2)CC1` [Compound P-0041, [4-(methylamino)-1-piperidyl]-[6-(2-phenyl-1H-pyrrolo[2,3-b]pyridin-5-yl)-2-pyridyl]methanone] fall in the same range of IC50: 0.0001 to 10 µM for the first, 0.0001 to 10 µM for the second.

`N[C@@H]1CN(C(=O)c2cccc(-c3cnc4[nH]c(-c5ccccc5)cc4c3)n2)CC12CC2` [Compound P-0083, [(7S)-7-amino-5-azaspiro[2.4]heptan-5-yl]-[6-(2-phenyl-1H-pyrrolo[2,3-b]pyridin-5-yl)-2-pyridyl]methanone] and `CC1(N)CCCN(C(=O)c2cccc(-c3cnc4[nH]c(-c5ccccc5)cc4c3)n2)C1` (stereo not drawn) [Compound P-0082, (3-amino-3-methyl-1-piperidyl)-[6-(2-phenyl-1H-pyrrolo[2,3-b]pyridin-5-yl)-2-pyridyl]methanone] fall in the same range of IC50: 0.0001 to 10 µM for the first, 0.0001 to 10 µM for the second.

Compared with `CC(=O)NC1CCN(C(=O)c2cccc(-c3cnc4[nH]c(-c5ccc(F)cc5)cc4c3)c2)CC1` [Compound P-0001, N-[1-[3-[2-(4-fluorophenyl)-1H-pyrrolo[2,3-b]pyridin-5-yl]benzoyl]-4-piperidyl]acetamide], `CS(=O)(=O)NC1CCN(C(=O)c2cccc(-c3cnc4[nH]c(-c5ccccc5)cc4c3)n2)CC1` [Compound P-0032, N-[1-[6-(2-phenyl-1H-pyrrolo[2,3-b]pyridin-5-yl)pyridine-2-carbonyl]-4-piperidyl]methanesulfonamide] is lower in IC50: 10 to 50 µM for the first, 0.0001 to 10 µM for the second. The second is the more potent here.

First: N[C@H]1CCN(C(=O)c2csc(-c3cnc4[nH]c(-c5ccccc5)cc4c3)n2)C1 [Compound P-0048, [(3S)-3-aminopyrrolidin-1-yl]-[2-(2-phenyl-1H-pyrrolo[2,3-b]pyridin-5-yl)thiazol-4-yl]methanone]
Second: O=C(c1cccc(-c2cnc3[nH]c(-c4ccccc4)cc3c2)n1)N1CCC(O)C1 (stereo not drawn) [Compound P-0068, (3-hydroxypyrrolidin-1-yl)-[6-(2-phenyl-1H-pyrrolo[2,3-b]pyridin-5-yl)-2-pyridyl]methanone]
The IC50 of the first is higher: 10 to 50 µM for the first, 0.0001 to 10 µM for the second.

`O=C(NC1CCNCC1)c1n[nH]c2ccc(-c3cnc4[nH]c(-c5ccccc5)cc4c3)cc12` [Compound P-0039, 5-(2-phenyl-1H-pyrrolo[2,3-b]pyridin-5-yl)-N-(4-piperidyl)-1H-indazole-3-carboxamide] and `c1ccc(-c2cc3cc(-c4ccc5[nH]nc(NC6CCNCC6)c5c4)cnc3[nH]2)cc1` [Compound P-0056, 5-(2-phenyl-1H-pyrrolo[2,3-b]pyridin-5-yl)-N-(4-piperidyl)-1H-indazol-3-amine] fall in the same range of IC50: 0.0001 to 10 µM for the first, 0.0001 to 10 µM for the second.

`CN(C(=O)c1cccc(-c2cnc3[nH]c(-c4ccccc4)cc3c2)n1)C1CCNC1` (stereo not drawn) [Compound P-0076, N-methyl-6-(2-phenyl-1H-pyrrolo[2,3-b]pyridin-5-yl)-N-pyrrolidin-3-yl-pyridine-2-carboxamide] and `O=C(c1cccc(-c2cnc3[nH]c(-c4ccccc4)cc3c2)n1)C1CCNCC1` [Compound P-0043, [6-(2-phenyl-1H-pyrrolo[2,3-b]pyridin-5-yl)-2-pyridyl]-(4-piperidyl)methanone] fall in the same range of IC50: 0.0001 to 10 µM for the first, 0.0001 to 10 µM for the second.

`CNC1CCCN(C(=O)c2cccc(-c3cnc4[nH]c(-c5ccccc5)cc4c3)n2)C1` (stereo not drawn) [Compound P-0080, [3-(methylamino)-1-piperidyl]-[6-(2-phenyl-1H-pyrrolo[2,3-b]pyridin-5-yl)-2-pyridyl]methanone] and `O=C(c1cccc(-c2cnc3[nH]c(-c4ccccc4)cc3c2)n1)N1CCCC(O)C1` (stereo not drawn) [Compound P-0069, (3-hydroxy-1-piperidyl)-[6-(2-phenyl-1H-pyrrolo[2,3-b]pyridin-5-yl)-2-pyridyl]methanone] fall in the same range of IC50: 0.0001 to 10 µM for the first, 0.0001 to 10 µM for the second.

`NC1CCC(C(=O)N2Cc3c(cccc3-c3cnc4[nH]c(-c5ccccc5)cc4c3)C2=O)C1` (stereo not drawn) [Compound P-0047, 2-(3-aminocyclopentanecarbonyl)-4-(2-phenyl-1H-pyrrolo[2,3-b]pyridin-5-yl)isoindolin-1-one] and `CC1(N)CCN(C(=O)c2cccc(-c3cnc4[nH]c(-c5ccccc5)cc4c3)n2)CC1` [Compound P-0081, (4-amino-4-methyl-1-piperidyl)-[6-(2-phenyl-1H-pyrrolo[2,3-b]pyridin-5-yl)-2-pyridyl]methanone] fall in the same range of IC50: 0.0001 to 10 µM for the first, 0.0001 to 10 µM for the second.

First: CON(C)C(=O)c1cccc(-c2cnc3[nH]c(-c4ccccc4)cc3c2)c1 [Compound P-0002, N-methoxy-N-methyl-3-(2-phenyl-1H-pyrrolo[2,3-b]pyridin-5-yl)benzamide]
Second: O=C(c1cccc(-c2cnc3[nH]c(-c4ccccc4)cc3c2)n1)N1CCC(F)(F)CC1 [Compound P-0089, (4,4-difluoro-1-piperidyl)-[6-(2-phenyl-1H-pyrrolo[2,3-b]pyridin-5-yl)-2-pyridyl]methanone]
The IC50 of the first is lower: 0.0001 to 10 µM for the first, 50 to 100 µM for the second.
